The results in this text go back to ChEMBL document CHEMBL5352386 (Eur J Med Chem, 2022).

The target in data set [1] is Cholinesterase (Equus caballus, UniProt P81908). Put plainly: Inhibition of equine serum BuChE using butyrylthiocholine iodide as substrate incubated for 10 mins followed by substrate addition by DTNB-reagent based Ellman's colorimetric assay. A general note: Ellman's reagent forms a yellow product with free thiols.
Data set [2] concerns the target Cholinesterase (Homo sapiens, UniProt P06276). Put plainly: Inhibition of human BuChE using butyrylthiocholine iodide as substrate incubated for 10 mins followed by substrate addition by DTNB-reagent based Ellman's colorimetric assay.
For another data set, the system named is PC-12. Put plainly: Cytotoxicity against rat PC12 cells assessed as survival rate at 100 uM measured after 24 hrs by MTT assay relative to control. The note with it: PC-12, 24 h, read-out: Survival. In general terms: Tetrazolium dyes change colour on reduction, which living cells bring about.
Data set [3] has as its system SH-SY5Y. Put plainly: Cytotoxicity against human SH-SY5Y cells assessed as survival rate at 2.5 uM measured after 24 hrs by MTT assay relative to control. It counts as functional. Particulars: read-out: Survival.
A short description of data set [4]: Cytotoxicity against mouse BV-2 cells assessed as survival rate at 2.5 uM measured after 24 hrs by MTT assay relative to control. It counts as toxicity, cell-based. Particulars: read-out: Survival.
For data set [5], the system named is L02. Put plainly: Cytotoxicity against human L02 cells assessed as survival rate at 2.5 uM measured after 24 hrs by MTT assay relative to control. The note with it: read-out: Survival. It is filed as functional.
The nature of data set [6]: AUC (0 to t) in Sprague-Dawley rat at 10 mg/kg, po measured upto 1440 mins by LC/MS/MS analysis. Particulars: in vivo. Further details: time < 1440 min, dose 10 mg/kg, route po. It counts as ADME, organism-based.
The subject of data set [7] is SH-SY5Y. In words: Cytotoxicity against human SH-SY5Y cells assessed as survival rate at 100 uM measured after 24 hrs by MTT assay relative to control. It counts as functional. The note with it: read-out: Survival.
Data set [8] is described as follows: Cytotoxicity against mouse BV-2 cells assessed as survival rate at 100 uM measured after 24 hrs by MTT assay relative to control. It is filed as toxicity, cell-based. The note with it: read-out: Survival.
The test system of data set [9] is L02. In words: Cytotoxicity against human L02 cells assessed as survival rate at 100 uM measured after 24 hrs by MTT assay relative to control. It is filed as functional. Particulars: read-out: Survival.
Data set [10] can be described thus: AUC (0 to t) in Sprague-Dawley rat at 10 mg/kg, iv measured upto 1440 mins by LC/MS/MS analysis. It is filed as ADME, organism-based. Further details: time < 1440 min, dose 10 mg/kg, route iv. The note with it: in vivo, 24 h.
Data set [11] is described as follows: AUC (0 to infinity) in Sprague-Dawley rat at 10 mg/kg, po measured upto 1440 mins by LC/MS/MS analysis. Particulars: in vivo. It counts as ADME, organism-based. Further details: dose 10 mg/kg, time < 1440 min, route po.
Data set [12] in a line: AUC (0 to infinity) in Sprague-Dawley rat at 10 mg/kg, iv measured upto 1440 mins by LC/MS/MS analysis. The note with it: in vivo, 24 h. It is filed as ADME, organism-based. On the set-up: dose 10 mg/kg, time < 1440 min, route iv.
A short description of data set [13]: MRT infinity in Sprague-Dawley rat at 10 mg/kg, po measured upto 1440 mins by LC/MS/MS analysis. It counts as ADME, organism-based. The note with it: in vivo.
Data set [14] is described as follows: MRT infinity in Sprague-Dawley rat at 10 mg/kg, iv measured upto 1440 mins by LC/MS/MS analysis. It counts as ADME, organism-based. Particulars: in vivo.
A short description of data set [15]: Half life in Sprague-Dawley rat at 10 mg/kg, po measured upto 1440 mins by LC/MS/MS analysis. It is filed as ADME, organism-based. The note with it: in vivo.
Data set [16] in a line: Half life in Sprague-Dawley rat at 10 mg/kg, iv measured upto 1440 mins by LC/MS/MS analysis. It is filed as ADME, organism-based. Particulars: in vivo.
The nature of data set [17]: Tmax in Sprague-Dawley rat at 10 mg/kg, po measured upto 1440 mins by LC/MS/MS analysis. It is filed as ADME, organism-based. The note with it: in vivo.
The nature of data set [18]: Tmax in Sprague-Dawley rat at 10 mg/kg, iv measured upto 1440 mins by LC/MS/MS analysis. It counts as ADME, organism-based. The note with it: in vivo.
Data set [19] is described as follows: Cmax in Sprague-Dawley rat at 10 mg/kg, po measured upto 1440 mins by LC/MS/MS analysis. Particulars: in vivo, 24 h. On the set-up: time < 1440 min, dose 10 mg/kg, route po. It is filed as ADME, organism-based.
A short description of data set [20]: Cmax in Sprague-Dawley rat at 10 mg/kg, iv measured upto 1440 mins by LC/MS/MS analysis. Further details: dose 10 mg/kg, time < 1440 min, route iv. Particulars: in vivo, 24 h. It counts as ADME, organism-based.
Data set [21] can be described thus: Oral bioavailability in Sprague-Dawley rat at 10 mg/kg measured upto 1440 mins by LC/MS/MS analysis. It counts as ADME, organism-based. Particulars: in vivo.

Chain of Cholinesterase (Homo sapiens, UniProt P06276) (P06276 whole entry): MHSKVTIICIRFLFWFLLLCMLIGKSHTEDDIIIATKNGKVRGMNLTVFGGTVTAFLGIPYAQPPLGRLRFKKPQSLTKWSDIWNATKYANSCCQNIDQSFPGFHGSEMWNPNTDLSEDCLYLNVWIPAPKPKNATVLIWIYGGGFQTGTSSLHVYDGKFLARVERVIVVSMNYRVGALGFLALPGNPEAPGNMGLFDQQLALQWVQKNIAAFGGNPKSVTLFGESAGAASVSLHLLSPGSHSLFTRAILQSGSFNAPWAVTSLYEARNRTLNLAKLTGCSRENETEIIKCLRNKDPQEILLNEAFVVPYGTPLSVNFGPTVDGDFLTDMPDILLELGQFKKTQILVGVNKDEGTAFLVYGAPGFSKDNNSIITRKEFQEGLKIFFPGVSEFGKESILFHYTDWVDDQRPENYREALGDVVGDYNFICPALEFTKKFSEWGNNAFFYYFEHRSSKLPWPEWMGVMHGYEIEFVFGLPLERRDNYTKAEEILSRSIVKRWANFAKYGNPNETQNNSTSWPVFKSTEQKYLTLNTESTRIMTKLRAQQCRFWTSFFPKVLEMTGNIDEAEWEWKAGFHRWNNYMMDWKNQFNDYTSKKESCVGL
Chain of Cholinesterase (Equus caballus, UniProt P81908) (P81908 whole entry): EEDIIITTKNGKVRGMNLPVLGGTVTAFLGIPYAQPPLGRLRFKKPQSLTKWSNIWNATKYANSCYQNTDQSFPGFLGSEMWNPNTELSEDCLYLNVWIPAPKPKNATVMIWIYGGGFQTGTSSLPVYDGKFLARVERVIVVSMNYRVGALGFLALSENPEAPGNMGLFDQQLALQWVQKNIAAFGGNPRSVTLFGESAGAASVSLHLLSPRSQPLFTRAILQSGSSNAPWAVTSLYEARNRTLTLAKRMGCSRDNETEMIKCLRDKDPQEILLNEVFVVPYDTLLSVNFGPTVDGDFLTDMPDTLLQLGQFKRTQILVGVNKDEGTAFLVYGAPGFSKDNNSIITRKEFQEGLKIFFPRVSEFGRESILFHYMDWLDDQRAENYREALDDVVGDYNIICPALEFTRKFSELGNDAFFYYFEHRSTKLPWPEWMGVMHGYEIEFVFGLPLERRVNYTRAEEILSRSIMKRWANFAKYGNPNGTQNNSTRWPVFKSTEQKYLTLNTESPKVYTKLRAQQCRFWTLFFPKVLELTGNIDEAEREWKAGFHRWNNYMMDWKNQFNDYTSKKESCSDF

The term IC50 denotes the midpoint of a concentration-inhibition curve. Lower therefore signals greater potency in that assay. As to `Nc1nonc1-c1nc2ccccc2n1CC(=O)Nc1cc(F)cc(C(F)(F)F)c1`, the IC50 against Cholinesterase [1] came to 0.255 µM; against Cholinesterase [2], 0.155 µM. The viability at 100 µM in the data set with PC-12 was determined as 74.4%. For the same compound, the viability at 2.5 µM is 23.4% with SH-SY5Y [3] and 39.5% in the data set on L02 [5]. Moreover, the viability at 24 h, 2.5 µM in data set [4] came to 39.5%.
A word on the AUC(0-t): it is exposure summed from dosing to a finite time, without extrapolation to infinity. Usually AUC(0-inf) stands for the area under the concentration-time curve extrapolated to infinity. Read a high AUC(0-inf) as more exposure. In general, AUC refers to the area under the concentration-time curve, a measure of exposure. Usually MRT inf stands for the average time that molecules of a dose stay in the body. In general, half-life refers to the time in which the quantity being followed falls by half. The low end stands for fast loss, the high end for slow loss. For orientation: Tmax means the time from dosing to the highest level. Usually Cmax stands for the peak of the concentration-time curve. As a reminder, the bioavailability is dose-corrected exposure relative to a reference, in per cent. `Nc1nonc1-c1nc2ccccc2n1CC(=O)Nc1cnc2ccccc2c1` had an AUC(0-t) at 24 h in [6] of 3.36 µg·h/mL. In addition, half-maximal inhibition against Cholinesterase [2] (IC50) was put at 0.0501 µM. In addition, the values for the viability at 100 µM in the data set with SH-SY5Y [7] and with L02 [9] were 62.2% and 70.6%, respectively. In addition, the viability at 24 h, 100 µM in data set [8] turned out to be 62.7%. In data set [10], this compound came in with an AUCt of 15.66239 µg·h/mL. In addition, in data set [11], the AUC(0-inf) amounted to 3.78 µg·h/mL. In data set [12], this compound came in with an AUC of 15.98879 µg·h/mL. The figures for the mean residence time MRT inf in [13] and in data set [14] were 7.37 h and 3.11 h, respectively. The half-life in data set [15] is 4.74 h; in data set [16] it was 2.68 h. The time to peak (Tmax) was 0.18 h in [17] and 1 min in data set [18]. The values for the Cmax in data set [19] and in data set [20] were 0.97505 µg/mL and 9.7527 µg/mL, respectively. This compound also gave a bioavailability in [21] of 23.6%.
